Assay results taken from US20200031793A1, “Synthesis of Thapsigargin, Nortrilobolide, and Analogs Thereof” (priority 2017, published 2020).

Legend:
[1] = test system: sarco/endoplasmic reticulum Ca^2+-ATPases (SERCAs); conditions: cited from earlier work; for inhibition of sarco/endoplasmic reticulum Ca^2+-ATPases (SERCAs): qualitative statement, no own test

Row | Compound | inhibition of sarco/endoplasmic reticulum Ca^2+-ATPases (SERCAs) [1] | inhibition of Sarco/endoplasmic reticulum Ca^2+-ATPase compared with thapsigargin (1) ([1]; relative to 1 (thapsigargin)) | melting point
1 | C/C=C(/C)C(=O)O[C@@H]1C[C@H]2C(=C1C)[C@@H]1OC(=O)[C@@](C)(O)[C@@]1(O)[C@@H](OC(=O)CCC)C[C@]2(C)OC(C)=O [nortrilobolide] | potent inhibitor | equipotent inhibition | –
2 | CC1=C2[C@@H]3OC(=O)[C@@](C)(O[Si](C)(C)C)[C@@]3(O)[C@H](OCc3ccccc3)C[C@](C)(O)[C@H]2C[C@H]1O[Si](C)(C)C(C)(C)C | – | – | 176.1 to 178.5 °C
3 | thapsigargin | highly selective subnanomolar inhibitor | – | –
